Where “and” joins values, the source holds several entries; their conditions need not be identical. Identical values can stand only once.
Experiments:
[1] = test system: hydrogen peroxide (DHR) in NHEK cells; assay: Protection against UV-induced H2O2 stress in NHEK (DHR probe, flow cytometry); format: cell-based, human; conditions: 180 mJ/cm^2 UVB (2839 mJ/cm^2 UVA), 100 μM
Description: (§1) Pre-incubated NHEK were incubated with the test compound for 24 h. Then the specific fluorescence probe for the measurement of hydrogen peroxide (DHR) or lipid peroxides (C11-fluor) was added and incubated for 45 min. Irradiation occurred with in H2O2 determination UVB at 180 mJ/cm^2 (+UVA at 2839 mJ/cm^2) or UVB at 240 mJ/cm^2 (+UVA at 3538 mJ/cm^2) in lipid peroxide, respectively, using a SOL500 Sun Simulator lamp. After irradiation the cells were post-incubated for 30 min before flow-cytometry analysis.

[2] = test system: lipid peroxides (C11-fluor) in NHEK cells; assay: Protection against UV-induced lipid peroxide in NHEK (C11-fluor probe, flow cytometry); format: cell-based, human; conditions: 240 mJ/cm^2 UVB (3538 mJ/cm^2 UVA), 50 μM
Description: as §1

NF-κB = NF-κB activity in NIH3T3-KBF-Luc cells stimulated with TNFα (luciferase); format: cell-based; conditions: +30 ng/ml TNFα
Description: NIH3T3-KBF-Luc cells were stably transfected with the KBF-Luc plasmid (Sancho (2003) Mol Pharmacol 63:429-438), which contains three copies of NF-κB binding site (from major histocompatibility complex promoter), fused to a minimal simian virus 40 promoter driving the luciferase gene. Cells (1×10^4 for NIH3T3-KBF-Luc) were seeded the day before the assay on 96-well plate. Then the cells were treated with the test substances for 15 min and then stimulated with 30 ng/ml of TNFα. After 6 h, the cells were washed twice with PBS and lysed in 50 μl lysis buffer containing 25 mM Tris-phosphate (pH 7.8), 8 mM MgCl2, 1 mM DTT, 1% Triton X-100, and 7% glycerol during 15 min at RT in a horizontal shaker. Luciferase activity was measured using a GloMax 96 microplate luminometer (Promega) following the instructions of the luciferase assay kit (Promega, Madison, Wis., USA). […] The experiments for each concentration of the test items were done in triplicate wells.

STAT3 = STAT3 activity in HeLa-STAT3-luc cells stimulated with IFN-γ (luciferase); format: cell-based; conditions: +IFNγ 25 U/ml
Description: HeLa-STAT3-luc cells were stably transfected with the plasmid 4×M67 pTATA TK-Luc. Cells (20×10^3 cells/ml) were seeded 96-well plate the day before the assay. Then the cells were treated with the test substances for […] and then stimulated with IFN-γ 25 IU/ml. After 6 h, the cells were washed twice with PBS and lysed in […] lysis buffer containing 25 mM Tris-phosphate (pH 7.8), 8 mM MgCl2, 1 mM DTT, 1% Triton X-100, and 7% glycerol during […] at RT in a horizontal shaker. Luciferase activity was measured using GloMax 96 microplate luminometer (Promega) following the instructions of the luciferase assay kit (Promega, Madison, Wis., USA). […] The experiments for each concentration of the test items were done in triplicate wells.

HaCaT cells = assay: Glucose uptake (2-NBDG) in HaCaT keratinocytes; format: cell-based; conditions: +2NBDG 50 μM, 24 h
Description: HaCaT cells (5×10^4) were seeded in 96-well black plates and incubated for 24 h. Then, medium was removed and the cells cultivated in OptiMEM, labeled with 50 μM 2-NBDG (2-[N-(7-nitrobenz-2-oxa-1,3-diazol-4-yl) amino]-2-deoxy-D-glucose and treated with the test substances or the positive control, Rosiglitazone, for 24 h. Medium was removed and the wells were carefully washed with PBS and incubated in PBS (100 μl/well). Finally the fluorescence was measured using the Incucyte FLR software, the data were analyzed by the total green object integrated intensity (GCU×μm2×Well) of the imaging system IncuCyte HD (Essen BioScience). The fluorescence of Rosiglitazone is taken as 100% of glucose uptake, and the glucose uptake was calculated as (% Glucose uptake)=100(T−B)/(R−B), where T (treated) is the fluorescence of test substance-treated cells, B (Basal) is the fluorescence of 2-NBDG cells and […] is the fluorescence of cells treated with Rosiglitazone.

[3] = test system: matrix metallopeptidase 1 (MMP-1); assay: MMP-1 release in UVA-irradiated NHDF (ELISA); format: cell-based, human; conditions: NHDF irradiated 15 J/cm^2 UVA, 10^−7M
Description: (§2) Tests were performed with normal human dermal fibroblast cultures at the 8th passage. Cells were grown in DMEM supplemented with glutamine at 2 mM, penicillin at 50 U/mL and streptomycin (50 μg/mL) and 10% of fetal calf serum (FCS) at 37° C. in a 5% CO2 atmosphere.
Human fibroblasts were cultured for 24 hours before the cells were pre-incubated with the test or reference compounds (dexamethasone) for another 24 hours. The medium was replaced by the irradiation medium (EBSS, CaCl2) 0.264 g/L, MgClSO4 0.2 g/L) containing the test compounds) and cells were irradiated with UVA (15 J/cm^2). The irradiation medium was replaced by culture medium including again the test compounds incubated for 48 hours. After incubation the quantity of matrix metallopeptidase 1 (MMP-1) in the culture supernatant was measured using an ELISA kit.

PGE2 = assay: Anti-inflammatory potential: secreted PGE2 in stimulated NHEK (ELISA); format: cell-based, human; conditions: PMA - 1 μg/ml, reference at 10^−6M, cytokine type not given; for Cytokine: single values
Description: NHEK were pre-incubated for 24 h with the test compounds. The medium was replaced with the NHEK culture medium containing the inflammatory inducers (PMA or Poly I:C) and incubated for another 24 hours. Positive and negative controls ran in parallel. At the endpoint the culture supernatants were quantified of secreted IL-8, PGE2 and TNF-α, by means of ELISA.

[4] = test system: normal human epidermal keratinocytes (NHEK); assay: Cytotoxicity on NHEK monolayer (MTT reduction assay and morphological observation); format: cell-based; conditions: for Viability (%) Mean / Viability (%): MTT; for Viability (%): single values; for Morph. obs.: microscope
Description: To determine the cytotoxicity of flavonoid-5-O-α-L-rhamnosides tests were performed versus their aglycon derivatives in cell monolayer cultures. For this purpose concentrations ranging from 1 μM to 250 μM were chosen. The viability of normal human epidermal keratinocytes (NHEK) was twice evaluated by a MTT reduction assay and morphological observation with a microscope. NHEK were grown at 37° C. and 5% CO2 aeration in Keratinocyte-SFM medium supplemented with epidermal growth factor (EGF) at 0.25 ng/mL, pituitary extract (PE) at 25 μg/mL and gentamycin (25 μg/mL) for 24 h and were used at the 3rd passage. For cytotoxicity testing, pre-incubated NHEK were given fresh culture medium containing a specific concentration of test compound and incubated for 24 h. After a medium change at same test concentration cells were incubated a further 24 h until viability was determined. Test results are given in Table B2 and illustrated in FIG. 10.

procollagen I = assay: Stimulation of procollagen I synthesis in NHDF (ELISA); format: cell-based, human; conditions: 72 hours, 20 μg/ml
Description: as §2
(§3) Fibroblasts were cultured for 24 hours before the cells were incubated with the test compounds for further 72 hours. After the incubation the culture supernatants were collected in order to measure the released quantities of procollagen I, VEGF, and fibronectin by means of ELISA. Reference test compounds were vitamin C (procollagen I), PMA (VEGF), and TGF-β (fibronectin).

fibronectin = assay: Stimulation of fibronectin synthesis in NHDF (ELISA); format: cell-based, human; conditions: 72 h incubation, 10 ng/ml
Description: as §2, §3

## COc1ccc(O)c(C(C)(C)C)c1 [BHA]
[1]
  H2O2 % irradiated control: 42%
  H2O2 (AU) Mean: 776 AU
  H2O2 Protection %: 70%
[1]; single values
  H2O2 (AU) (DHR GMFI): 740 AU and 834 AU and 754 AU

## Cc1cc(C(C)(C)C)c(O)c(C(C)(C)C)c1 [BHT]
[2]
  C11-fluor (AU) Mean (1/GMFI): 3.3E−04 AU
  lipid peroxide % Irradiated control: 72%
  lipid peroxide Protection %: 37%
[2]; single values
  C11-fluor (AU) 1/GMFI: 3.2E−04 AU and 3.3E−04 AU and 3.5E−04 AU
  C11-fluor (AU) GMFI: 3139 AU and 3047 AU and 2877 AU

## COc1ccc(-c2coc3cc(O)cc(O[C@@H]4O[C@@H](C)[C@H](O)[C@@H](O)[C@H]4O)c3c2=O)cc1 [BR2, Biochanin A 5-O-α-L-rhamnoside]
NF-κB; 10 μM
  % Activation (NF-κB; TNFα = 100%): 138.3%
  RLU 1: 205410 RLU
  RLU 2: 202640 RLU
  RLU 3: 202940 RLU
  RLU MEAN: 203663 RLU
  RLU specific: 180300 RLU
NF-κB; 25 μM
  % Activation (NF-κB; TNFα = 100%): 163.2%
  RLU 1: 237390 RLU
  RLU 2: 235850 RLU
  RLU 3: 235350 RLU
  RLU MEAN: 236197 RLU
  RLU specific: 212833 RLU
STAT3; 25 μM
  % Activation (STAT3; IFNγ = 100%): 109.76%
  RLU 1: 11157 RLU
  RLU 2: 10163 RLU
  RLU 3: 10660 RLU
  RLU MEAN: 10660 RLU
  RLU specific: 8825 RLU
STAT3; 50 μM
  % Activation (STAT3; IFNγ = 100%): 93.74%
  RLU 1: 7983 RLU
  RLU 2: 9023 RLU
  RLU 3: 11110 RLU
  RLU MEAN: 9372 RLU
  RLU specific: 7537 RLU
HaCaT cells; 25 μM
  % Glucose uptake (Rosiglitazone = 100%): 77.5%
  Mean (fluorescence): 1027608
  Measure 1 (fluorescence): 998132
  Measure 2 (fluorescence): 1149619
  Measure 3 (fluorescence): 935073
  RFU specific: 994522 RFU
HaCaT cells; 50 μM
  % Glucose uptake (Rosiglitazone = 100%): 129.0%
  Mean (fluorescence): 1688513
  Measure 1 (fluorescence): 1657600
  Measure 2 (fluorescence): 1788604
  Measure 3 (fluorescence): 1619334
  RFU specific: 1655427 RFU

## C[C@@H]1C[C@H]2[C@@H]3CCC4=CC(=O)C=C[C@]4(C)[C@@]3(F)[C@@H](O)C[C@]2(C)[C@@]1(O)C(=O)CO [Dexamethasone, reference compound]
[3]
  MMP-1 % Irradiated control: 4%
  MMP-1 % Protection: 150%
  MMP-1 (ng/ml), single replicates: 2.5 ng/mL and 3.1 ng/mL and 3.2 ng/mL
  Mean MMP-1: 2.9 ng/mL
PGE2
  % stim. control: 92%
  Cytokine [pg/mL] Mean: 1437 pg/mL
  Cytokine: 1318 pg/mL and 1556 pg/mL

## COc1ccc(C2CC(=O)c3c(O)cc(O)cc3O2)cc1O (stereo not drawn) [Hesperetin, 3′,5,7-Trihydroxy-4′-methoxyflavanone]
[4]; 1 μM
  Viability (%) Mean: 105%
  Viability (%): 103% and 106%
[4]; 2.5 μM
  Viability (%) Mean: 103%
  Viability (%): 98% and 109%
[4]; 5 μM
  Viability (%) Mean: 106%
  Viability (%): 107% and 106%
[4]; 10 μM
  Viability (%) Mean: 103%
  Viability (%): 101% and 105%
[4]; 25 μM
  Viability (%) Mean: 108%
  Viability (%): 106% and 109%
[4]; 50 μM
  Viability (%) Mean: 106%
  Viability (%): 106%
[4]; 100 μM
  Viability (%) Mean: 99%
  Viability (%): 98% and 100%
[4]; 250 μM
  Viability (%) Mean: 57%
  Viability (%): 54% and 59%
[4]; 250 μM, listed as hesperetin
  Viability (%) Mean: about 50%

## COc1ccc2c(c1)c(CC(=O)O)c(C)n2C(=O)c1ccc(Cl)cc1 [Indomethacin]
PGE2
  % stim. control: 2%
  Cytokine [pg/mL] Mean: 39 pg/mL
  Cytokine: 39 pg/mL

## O=C1CC(c2ccc(O)cc2)Oc2cc(O)cc(O)c21 (stereo not drawn) [Naringenin, 4′,5,7-Trihydroxyflavanone]
[4]; 1 μM
  Viability (%) Mean: 95%
  Viability (%): 96% and 95%
[4]; 2.5 μM
  Viability (%) Mean: 93%
  Viability (%): 95% and 92%
[4]; 5 μM
  Viability (%) Mean: 92%
  Viability (%): 93% and 91%
[4]; 10 μM
  Viability (%) Mean: 95%
  Viability (%): 95%
[4]; 25 μM
  Viability (%) Mean: 92%
  Viability (%): 89% and 94%
[4]; 50 μM
  Viability (%) Mean: 89%
  Viability (%): 85% and 94%
[4]; 100 μM
  Viability (%) Mean: 75%
  Viability (%): 76% and 74%
  Morph. obs.: +/−,*
[4]; 250 μM
  Viability (%) Mean: 47%
  Viability (%): 48% and 47%
  Morph. obs.: +/−,*
[4]; 250 μM, listed as naringenin
  Viability (%) Mean: about 50%

## O=C1O[C@H]([C@@H](O)CO)C(O)=C1O [Vitamin C]
Procollagen I
  Procollagen I % Control: 316%
  Procollagen I % Stimulation: 216%
  Procollagen I Mean: 5272 ng/mL
Procollagen I; single values
  Procollagen I: 4739 ng/mL and 5854 ng/mL and 5225 ng/mL

## TGF-β [listing 1 of 2 here]
fibronectin
  Fibronectin % Control: 181%
  Fibronectin % Stimulation: 81%
  Fibronectin (ng/ml), single replicates: 10870 ng/mL

## TGF-β [listing 2 of 2 here]
fibronectin
  Fibronectin (ng/ml), single replicates: 11178 ng/mL and 11128 ng/mL

Source: patent US20190203240A1, “METHODS FOR THE PRODUCTION OF RHAMNOSYLATED FLAVONOIDS” (Universitaet Hamburg, priority 2016, published 2019)
